Data published in ChEMBL document CHEMBL4715868, “Neurotrophic isoindolinones from the fruiting bodies of Hericium erinaceus” (2021).
The source made the active and inactive calls. No cut-off for these calls is given here.

Columns and labels:
[1] = Neurotrophic activity in […] N2a cells assessed as increase in NGF-mediated neurite outgrowth at 10 uM incubated for 24 hrs by cell imaging analysis relative to control; assay type: functional
C6 [2] = assay: Upregulation of NGF production in rat C6 cells co-cultured with N2a cells at 10 to 50 uM incubated for 24 hrs followed by cell transfer to N2a cells by Western blot analysis; assay type: functional, cell-based; settings: dose 10-50 µM
C6 [3] = assay: Upregulation of Syp production in rat C6 cells co-cultured with N2a cells at 10 to 50 uM incubated for 24 hrs followed by cell transfer to N2a cells by Western blot analysis; assay type: functional, cell-based; settings: dose 10-50 µM
C6 [4] = assay: Neurotrophic activity in rat C6 cells assessed as NGF production at 10 to 50 uM incubated for 24 hrs by ELISA; assay type: functional, cell-based; settings: dose 10-50 µM
C6 [5] = assay: Upregulation of BDNF production in rat C6 cells co-cultured with N2a cells at 10 to 50 uM incubated for 24 hrs followed by cell transfer to N2a cells by Western blot analysis; assay type: functional, cell-based; settings: dose 10-50 µM
[6] = Neurotrophic activity in […] N2a cells assessed as increase in NGF-mediated neurite outgrowth at 25 uM incubated for 24 hrs by cell imaging analysis relative to control; assay type: functional

| SMILES | Activity [1] [%] | Activity (C6 [2]) | Activity (C6 [3]) | Activity (C6 [4]) | Activity (C6 [5]) | Activity [6] [%] |
| --- | --- | --- | --- | --- | --- | --- |
| CC1=C(/C=C/C(C)=C/C=C/C(C)=C/C(=O)O)C(C)(C)CCC1 [TRETINOIN] | 112.08 |  |  |  |  |  |
| COc1cc2c(c(O)c1CCO)CN(CCc1ccccc1)C2=O |  | Active | inactive | Dose-dependent effect | Active | 122.82 |
| COc1cc2c(c(O)c1C/C=C(\C)CC/C=C(\C)C(=O)O)COC2=O |  | Active | inactive | Active | Active |  |
| COc1cc2c(c(O)c1C/C=C(\C)CCC=C(C)C)C(=O)N(CCc1ccccc1)C2 |  | Active | inactive | Active |  | 116.82 |
